Test results reported in patent US8173689B2 (Novartis AG, priority 2006, dated 2012).
Where two headings read alike, the source gives them in different places.

How the values were obtained:
[1] = biological target: T1, cytoplasmic domain of the human CSF-1R (Homo sapiens, UniProt P07333); assay: In vitro kinase assay for colony stimulating factor-1 receptor (AlphaScreen); format: biochemical; details: tested at about 1 μM, read-out: CSF-1R percent inhibition
T1 construct: Recombinant protein corresponding to the cytoplasmic domain of the human CSF-1R; purchased Invitrogen Corporation, Carlsbad, Calif; PV3249
T1 sequence (P07333 539-972 limits assumed): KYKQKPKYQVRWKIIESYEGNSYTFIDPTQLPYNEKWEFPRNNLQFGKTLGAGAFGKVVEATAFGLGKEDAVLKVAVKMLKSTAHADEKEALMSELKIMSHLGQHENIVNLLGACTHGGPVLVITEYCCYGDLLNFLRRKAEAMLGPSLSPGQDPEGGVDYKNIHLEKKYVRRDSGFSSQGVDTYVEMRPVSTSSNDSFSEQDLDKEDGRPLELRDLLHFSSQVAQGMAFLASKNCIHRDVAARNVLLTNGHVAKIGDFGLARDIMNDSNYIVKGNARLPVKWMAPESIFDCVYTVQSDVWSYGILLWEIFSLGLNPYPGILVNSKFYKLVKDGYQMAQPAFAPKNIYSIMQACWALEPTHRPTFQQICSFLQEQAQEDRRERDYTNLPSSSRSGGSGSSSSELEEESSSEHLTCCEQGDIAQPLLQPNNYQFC
Procedure, shortened: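 Kinase reaction used 4 nM recombinant cytoplasmic domain at 1 μM ATP in 50 mM Hepes pH 7.5 with 5 mM MgCl2, 10 mM MnCl2, 0.1% BSA, 1.0 mM DTT and 0.01% Tween 80. Compounds were serially diluted 3-fold from 25 μM. Phosphopeptide was detected by AlphaScreen, PT66 anti-phosphotyrosine acceptor plus streptavidin donor beads, read after overnight incubation.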

[2] = biological target: T2, full-length human CSF-1R receptor (Homo sapiens, UniProt P07333); assay: In vitro inhibition of CSF-1R receptor tyrosine phosphorylation in transfected HEK293H cells stimulated with MCSF; format: cell-based; details: HEK293-H, tested at about 1 μM, read-out: pCSF1R percent inhibition
T2 construct: transfected with the full-length human CSF-1R receptor cloned in house; expressed in transfected cells; host or cells: HEK293H (Invitrogen Cat. #11631017)
Protocol: The lysate was then transferred to total CSF-1R antibody coated 96-well plates that had already been blocked with 3% Blocker A from Mesoscale discovery (MSD) for 2 hours and washed afterwards. Lysates were incubated overnight at 4° C. and the plates were then washed 4× with MSD Tris Wash Buffer. […] The plates were read on the Sector 6000 instrument (MSD). Raw data was imported in Abase and EC50s calculated with XL-fit data analysis software.

[3] = biological target: T3, kinase domain of cKIT (Homo sapiens, UniProt P10721); assay: Inhibition of cKIT kinase signaling in an in vitro biochemical assay (alphascreen); details: tested at about 1 μM, read-out: cKit percent inhibition
T3 construct: The kinase domain of cKIT was assayed in 50 mM Hepes; purchased Upstate 14-559

[4] = tested on: MNFS60 (murine AML cells); assay: Cell viability assay in MCSF dependent MNFS60 cells (Cell Titer Glo); format: cell-based; details: Mus musculus, tested at about 1 μM, read-out: M-NFS-60 CP percent inhibition
Procedure, shortened: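 Three-fold serial compound dilutions, prepared in DMSO at 500× the final level, were applied alongside MCSF (final 10 ng/ml). Incubation lasted 72 hrs (37° C., 5% CO2) before CellTiter-Glo addition. Triplicate points were curve-fitted for EC50.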

[5] = biological target: T4, kinase domain of PDGFRβ (Homo sapiens, UniProt P09619); assay: Inhibition of PDGFRb kinase signaling in an in vitro biochemical assay (alphascreen); details: tested at about 1 μM, read-out: PDGFRβ percent inhibition
T4 construct: The kinase domain of PDGFRβ was assayed in 50 mM Hepes; purchased Invitrogen P3082
T4 sequence (P09619 600-962 limits assumed): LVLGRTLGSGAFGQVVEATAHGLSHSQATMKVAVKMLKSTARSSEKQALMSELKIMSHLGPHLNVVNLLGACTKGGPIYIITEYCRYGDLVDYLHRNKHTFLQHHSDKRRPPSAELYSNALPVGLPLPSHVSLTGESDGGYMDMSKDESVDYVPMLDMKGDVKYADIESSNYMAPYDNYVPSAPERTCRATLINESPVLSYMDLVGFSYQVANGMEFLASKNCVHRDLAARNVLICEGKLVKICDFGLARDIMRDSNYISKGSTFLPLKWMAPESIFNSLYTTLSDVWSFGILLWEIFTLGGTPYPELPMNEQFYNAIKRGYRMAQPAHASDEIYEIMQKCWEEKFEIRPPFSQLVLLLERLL

T2 sequence (P07333 20-972): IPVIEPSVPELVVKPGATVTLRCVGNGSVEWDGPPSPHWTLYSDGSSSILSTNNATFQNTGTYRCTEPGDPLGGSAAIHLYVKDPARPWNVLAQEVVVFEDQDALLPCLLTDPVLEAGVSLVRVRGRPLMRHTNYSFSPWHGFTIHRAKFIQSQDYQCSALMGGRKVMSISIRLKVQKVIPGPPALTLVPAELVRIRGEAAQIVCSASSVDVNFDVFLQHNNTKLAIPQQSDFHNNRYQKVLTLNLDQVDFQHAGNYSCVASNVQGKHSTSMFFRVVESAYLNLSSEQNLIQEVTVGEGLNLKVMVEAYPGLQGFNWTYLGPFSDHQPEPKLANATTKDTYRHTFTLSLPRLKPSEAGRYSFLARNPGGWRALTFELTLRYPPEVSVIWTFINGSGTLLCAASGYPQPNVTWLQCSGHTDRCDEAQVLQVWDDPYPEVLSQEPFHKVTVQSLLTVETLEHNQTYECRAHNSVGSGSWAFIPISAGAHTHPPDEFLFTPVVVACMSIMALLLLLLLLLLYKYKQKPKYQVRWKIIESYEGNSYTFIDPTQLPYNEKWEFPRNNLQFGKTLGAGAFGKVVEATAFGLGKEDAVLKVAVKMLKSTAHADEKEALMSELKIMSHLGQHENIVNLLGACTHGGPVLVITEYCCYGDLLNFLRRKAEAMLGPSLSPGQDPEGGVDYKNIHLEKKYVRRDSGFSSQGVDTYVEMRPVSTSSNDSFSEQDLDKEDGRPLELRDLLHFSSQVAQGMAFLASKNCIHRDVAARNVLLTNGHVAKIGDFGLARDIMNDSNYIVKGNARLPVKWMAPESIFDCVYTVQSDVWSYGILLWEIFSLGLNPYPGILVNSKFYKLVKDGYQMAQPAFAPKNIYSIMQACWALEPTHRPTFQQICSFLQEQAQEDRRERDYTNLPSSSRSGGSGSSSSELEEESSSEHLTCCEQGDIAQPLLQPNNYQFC
T3 sequence (P10721 589-937 limits assumed): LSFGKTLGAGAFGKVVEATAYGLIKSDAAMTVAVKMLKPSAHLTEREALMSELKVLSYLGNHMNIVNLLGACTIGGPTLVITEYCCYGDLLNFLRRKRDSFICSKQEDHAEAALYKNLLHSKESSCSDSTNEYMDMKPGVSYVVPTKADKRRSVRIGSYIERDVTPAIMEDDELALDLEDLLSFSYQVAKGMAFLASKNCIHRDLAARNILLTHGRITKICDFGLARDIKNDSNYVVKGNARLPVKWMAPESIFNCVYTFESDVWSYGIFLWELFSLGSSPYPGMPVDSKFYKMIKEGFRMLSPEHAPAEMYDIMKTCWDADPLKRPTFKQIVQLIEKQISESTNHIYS

Row | inhibition at 1 µM [1] | inhibition at 1 µM ([2]; HEK293H cells) | inhibition at 1 µM [3] | inhibition at 1 µM [5] | Structure (SMILES) | inhibition at 1 µM ([4]; MNFS60 cells) | also measured
1 | 100% | 93% | 19% | 13% | O[C@@H]1CCCC[C@H]1Nc1nc2ccc(Oc3ccnc(-c4cccnc4)c3)cc2s1 [Example 345, (1R,2R)-2-(6-(2,3'-bipyridin-4-yloxy)benzo[d]thiazol-2-ylamino)cyclohexanol] | – | inhibition at 1 µM ([4]; MCSF dependent MNFS60 cells): 97%
2 | 100% | 99% | 27% | 27% | CC(C)C[C@H](CO)Nc1nc2ccc(Oc3ccnc(-c4cnn(C)c4)c3)cc2s1 [Example 355, (R)-4-methyl-2-(6-(2-(1-methyl-1H-pyrazol-4-yl)pyridin-4-yloxy)benzo[d]thiazol-2-ylamino)pentan-1-ol] | – | inhibition at 1 µM ([4]; MCSF dependent MNFS60 cells): 100%
3 | 65% | 81% | 44% | 7% | CNC(=O)c1cc(Oc2ccc3nc(N[C@@H]4CCCC[C@H]4NS(C)(=O)=O)sc3c2)ccn1 [Example 326, N-methyl-4-(2-((1R,2R)-2-(methylsulfonamido)cyclo-hexylamino)benzo[d]thiazol-6-yloxy)picolinamide] | – | inhibition at 1 µM ([4]; MCSF dependent MNFS60 cells): 33%

The remaining lines, values behind:

Row | Structure (SMILES) | inhibition at 1 µM [1] | inhibition at 1 µM ([2]; HEK293H cells) | inhibition at 1 µM [3] | inhibition at 1 µM [5] | inhibition at 1 µM ([4]; MNFS60 cells) | also measured
4 | CC(C)CONC(=O)c1cc(Oc2ccc3nc(N[C@@H]4CCCC[C@H]4O)sc3c2)ccn1 [Example 381, 4-(2-((1R,2R)-2-hydroxycyclohexylamino)benzo[d]thiazol-6-yloxy)-N-isobutoxypicolinamide] | 100% | 99% | 30% | 20% | – | inhibition at 1 µM ([4]; MCSF dependent MNFS60 cells): 100%
5 | CNC(=O)c1cc(Oc2ccc3nc(NCc4cccc5c4OCCO5)sc3c2)ccn1 [Compound 152, 4-{2-[(2,3-Dihydro-benzo-[1,4]dioxin-5-ylmethyl)-amino]-benzothiazol-6-yloxy}-pyridine-2-carboxylic acid methylamide] | 99% | 98% | 100% | 82% | 100% | –
6 | Cc1cnc(-c2cc(Oc3ccc4nc(NCC5CCCCC5)oc4c3)ccn2)[nH]1 [Compound 109, Cyclohexylmethyl-{6-[2-(5-methyl-1H-imidazol-2-yl)-pyridin-4-yloxy]-benzooxazol-2-yl}-amine] | 100% | 90% | 53% | 75% | 81% | –
7 | CNC(=O)c1cc(Oc2ccc3nc(NCc4ccccn4)sc3c2)ccn1 [Compound 150, 4-{2-[(Pyridin-2-ylmethyl)-amino]-benzothiazol-6-yloxy}-pyridine-2-carboxylic acid methylamide] | 99% | 87% | 34% | 1% | 49% | –
8 | CNC(=O)c1cc(Oc2ccc3nc(NCc4cccc(F)c4F)sc3c2)ccn1 [Compound 147, 4-[2-(2,3-Difluoro-benzylamino)-benzothiazol-6-yloxy]-pyridine-2-carboxylic acid methylamide] | 98% | 97% | 90% | 0% | 90% | –
9 | O[C@@H]1CCCC[C@H]1Nc1nc2ccc(Oc3ccnc4c(F)cccc34)cc2s1 [Example 263, (1R,2R)-2-(6-(8-fluoroquinolin-4-yloxy)benzo[d]thiazol-2-ylamino)cyclohexanol] | – | – | – | – | – | inhibition at 1 µM ([1]; compounds of Table 3): 99%; inhibition at 1 µM ([2]; compounds of Table 3): 24%; inhibition at 1 µM ([3]; compounds of Table 3): 12%; inhibition at 1 µM ([4]; compounds of Table 3): 22%; inhibition at 1 µM ([5]; compounds of Table 3): 0%
10 | CNC(=O)c1cc(Oc2ccc3nc(N[C@H](CO)C(C)C)sc3c2)ccn1 [Compound 102] | – | – | – | – | – | inhibition at 1 µM ([1]; compounds of Table 3): 100%; inhibition at 1 µM ([2]; compounds of Table 3): 88%; inhibition at 1 µM ([3]; compounds of Table 3): 0%; inhibition at 1 µM ([4]; compounds of Table 3): 75%; inhibition at 1 µM ([5]; compounds of Table 3): 9%
11 | CNC(=O)c1cc(Oc2ccc3nc(NCC4CCCCC4)sc3c2)ccn1 [Compound 128, 4-[2-(Cyclohexylmethyl-amino)-benzothiazol-6-yloxy]-pyridine-2-carboxylic acid methylamide] | 100% | 95% | 90% | 83% | 95% | –
12 | CNC(=O)c1cc(Oc2ccc3nc(NCc4cccc5c4OCCCO5)oc3c2)ccn1 [Compound 108, 4-{2-[(3,4-Dihydro-2H-benzo[b][1,4]dioxepin-6-ylmethyl)-amino]-benzooxazol-6-yloxy}-pyridine-2-carboxylic acid methylamide] | 99% | 98% | 100% | 40% | 100% | –
13 | CNC(=O)c1cc(Oc2ccc3nc(NCc4cc(F)ccc4F)oc3c2)ccn1 [Compound 33, 4-[2-(2,5-Difluoro-benzylamino)-benzooxazol-6-yloxy]-pyridine-2-carboxylic acid methylamide] | 98% | 83% | – | 35% | 35% | inhibition at 1 µM ([1]; compounds of Table 4): 100%; inhibition at 1 µM ([2]; compounds of Table 4): 98%; inhibition at 1 µM ([3]; compounds of Table 4): 65%; inhibition at 1 µM ([4]; compounds of Table 4): 100%; inhibition at 1 µM ([5]; compounds of Table 4): 0%
14 | CNC(=O)c1cc(Oc2ccc3nc(NCc4c(F)cccc4OC)sc3c2)ccn1 [Example 223, 4-(2-(2-fluoro-6-methoxybenzylamino)benzo[d]thiazol-6-yloxy)-N-methylpicolinamide] | – | – | – | – | – | inhibition at 1 µM ([1]; compounds of Table 3): 100%; inhibition at 1 µM ([2]; compounds of Table 3): 97%; inhibition at 1 µM ([3]; compounds of Table 3): 54%; inhibition at 1 µM ([4]; compounds of Table 3): 100%; inhibition at 1 µM ([5]; compounds of Table 3): 28%
15 | CNC(=O)c1cc(Oc2ccc3nc(N[C@H](CO)C4CCCCC4)oc3c2)ccn1 [Compound 66, 4-[2-((S)-1-Cyclohexyl-02-hydroxy-ethylamino)-benzo-oxazol-6-yloxy]-pyridine-2-carboxylic acid methylamide] | 100% | 37% | 55% | 37% | 18% | –
16 | CNC(=O)c1cc(Oc2ccc3nc(NCc4cccc(F)c4F)oc3c2)ccn1 [Compound 79, 4-[2-(2,3-Difluoro-benzylamino)-benzooxazol-6-yloxy]-pyridine-2-carboxylic acid methylamide] | 100% | 94% | 31% | 0% | 57% | –
17 | CNC(=O)c1cc(Oc2ccc3nc(N[C@@H]4CCCC[C@H]4N)sc3c2)ccn1 [Example 297, 4-(2-((1R,2R)-2-aminocyclohexylamino)benzo[d]thiazol-6-yloxy)-N-methylpicolinamide] | – | – | – | – | – | inhibition at 1 µM ([1]; compounds of Table 3): 98%; inhibition at 1 µM ([2]; compounds of Table 3): 90%; inhibition at 1 µM ([3]; compounds of Table 3): 0%; inhibition at 1 µM ([4]; compounds of Table 3): 42%; inhibition at 1 µM ([5]; compounds of Table 3): 9%
18 | CNC(=O)c1cc(Oc2ccc3nc(NCc4ccccc4-n4cccn4)oc3c2)ccn1 [Compound 105, 4-[2-(2-Pyrazol-1-yl-benzyl-amino)-benzooxazol-6-yloxy]-pyridine-2-carboxylic acid methylamide] | 99% | 70% | 22% | 8% | 49% | –
